Measured values: the supplement of paper PMC10307832

How the values were obtained:
Experiment in all cases: relative viability (nuclei count vs DMSO), 5 days (fraction); higher = more cells survive
Shikonin + Palbociclib = compound: CC(C)=CC[C@@H](O)C1=CC(=O)c2c(O)ccc(O)c2C1=O [Shikonin] + CC(=O)c1c(C)c2cnc(Nc3ccc(N4CCNCC4)cn3)nc2n(C2CCCC2)c1=O [Palbociclib] (partner 0.5 µM)
Outline: (§1)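 Relative viability divides the nuclei count in treated wells by that in vehicle wells. Lung cancer cell lines were seeded in 1536-well plates, dosed by pin tool the next day, and fixed and stained after 5 days in one step with final 0.05% Triton X-100, 1% formaldehyde and 1 ug/ml Hoechst. Dosing was a single drug or a fixed anchor-drug dose plus five library-drug doses (not always all listed) in √10 steps, and values are medians of duplicate plates imaged at 4×.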

Shikonin + Pemetrexed = compound: CC(C)=CC[C@@H](O)C1=CC(=O)c2c(O)ccc(O)c2C1=O [Shikonin] + Nc1nc2[nH]cc(CCc3ccc(C(=O)N[C@@H](CCC(=O)O)C(=O)O)cc3)c2c(=O)[nH]1 [Pemetrexed] (partner 0.2 µM)
Outline: as §1

[1] = compound: CC(C)N(CCCNC(=O)Nc1ccc(C(C)(C)C)cc1)C[C@H]1O[C@@H](n2ccc3c(N)ncnc32)[C@H](O)[C@@H]1O + Nc1ncn([C@H]2C[C@H](O)[C@@H](CO)O2)c(=O)n1 [Decitabine] (partner 2 µM)
Outline: as §1

[2] = compound: CC(C)N(CCCNC(=O)Nc1ccc(C(C)(C)C)cc1)C[C@H]1O[C@@H](n2ccc3c(N)ncnc32)[C@H](O)[C@@H]1O + Cc1nc(NC(=O)N2CCC[C@H]2C(N)=O)sc1-c1ccnc(C(C)(C)C(F)(F)F)c1 [Alpelisib] (partner 2 µM)
Outline: as §1

Cell Line | relative viability (Shikonin + Palbociclib; first compound 0.01 µM) | relative viability (Shikonin + Palbociclib; first compound 0.1 µM) | relative viability (Shikonin + Palbociclib; first compound 0.3162 µM) | relative viability (Shikonin + Palbociclib; first compound 1 µM) | relative viability (Shikonin + Pemetrexed; first compound 0.01 µM) | relative viability (Shikonin + Pemetrexed; first compound 0.1 µM) | relative viability (Shikonin + Pemetrexed; first compound 0.3162 µM) | relative viability (Shikonin + Pemetrexed; first compound 1 µM) | relative viability ([1]; first compound 0.08 µM) | relative viability ([1]; first compound 0.253 µM) | relative viability ([1]; first compound 0.8 µM) | relative viability ([1]; first compound 2.53 µM) | relative viability ([1]; first compound 8 µM) | relative viability ([2]; first compound 0.08 µM) | relative viability ([2]; first compound 0.253 µM) | relative viability ([2]; first compound 0.8 µM) | relative viability ([2]; first compound 2.53 µM) | relative viability ([2]; first compound 8 µM)
NCI-H1975 | 0.549 | 0.629 | 0.541 | 0.641 | 0.315 | 0.298 | 0.286 | 0.283 | 0.367 | 0.44 | 0.273 | 0.354 | 0.376 | 0.555 | 0.529 | 0.586 | 0.611 | 0.567
CAL-12T | 0.414 | 0.451 | 0.403 | 0.438 | 1.28 | 1.41 | 1.09 | 1.24 | – | – | – | – | – | 1.02 | 1.32 | 1.26 | 1 | 1
HCC-44 | 0.979 | 0.991 | 0.984 | 1 | 0.652 | 0.678 | 0.667 | 0.637 | 0.979 | 1.01 | 0.714 | 0.966 | 0.915 | 0.811 | 0.785 | 0.744 | 0.787 | 0.806
EKVX | 0.404 | 0.389 | 0.413 | 0.366 | 0.438 | 0.435 | 0.472 | 0.362 | 0.342 | 0.339 | 0.327 | 0.36 | 0.351 | 0.908 | 0.883 | 0.827 | 0.855 | 0.676
NCI-H1651 | 0.553 | 0.522 | 0.544 | 0.523 | 0.631 | 0.748 | 0.606 | 0.652 | 0.611 | 0.534 | 0.589 | 0.611 | 0.539 | 0.882 | 0.98 | 0.92 | 0.935 | 1.04
NCI-H1944 | 0.311 | 0.403 | 0.321 | 0.349 | 0.625 | 0.719 | 0.676 | 0.572 | 0.451 | 0.438 | 0.471 | 0.394 | 0.423 | 0.769 | 0.806 | 0.774 | 0.852 | 0.82
NCI-H1703 | – | – | – | – | – | – | – | – | – | – | – | – | – | 0.309 | 0.322 | 0.304 | 0.439 | 0.318
Calu-6 | – | – | – | – | – | – | – | – | – | – | – | – | – | 0.987 | 1.01 | 1.02 | 1.09 | 0.984
EBC-1 | – | – | – | – | – | – | – | – | – | – | – | – | – | 0.749 | 0.825 | 0.739 | 0.848 | 0.704
NCI-H1993 | 0.687 | 0.672 | 0.722 | 0.455 | 0.561 | 0.619 | 0.557 | 0.627 | 0.482 | – | 0.564 | 0.6 | 0.559 | 0.696 | 0.786 | 0.619 | 0.675 | 0.751
A-427 | 0.503 | 0.545 | 0.528 | 0.553 | 1.02 | 1.04 | 1.01 | 1.24 | 0.556 | 0.535 | 0.568 | 0.541 | 0.568 | 1.08 | 1.03 | 1.11 | 1.1 | 1.18
NCI-H2405 | 0.527 | 0.569 | 0.558 | 0.509 | 1.05 | 1.31 | 1.06 | 1.13 | 0.723 | 0.748 | 0.741 | 0.745 | 0.708 | 0.858 | – | 0.789 | 0.89 | 0.795
NCI-H1355 | 0.421 | 0.419 | 0.383 | 0.398 | 1.13 | 1.15 | 1.02 | 1.06 | 0.338 | 0.342 | 0.414 | 0.335 | 0.342 | 0.768 | 0.809 | – | 0.772 | 0.804
NCI-H358 | 0.139 | 0.132 | 0.131 | 0.131 | 0.159 | 0.182 | 0.172 | 0.154 | 0.233 | 0.187 | 0.212 | 0.214 | 0.189 | 0.78 | 0.823 | 0.901 | 0.87 | 0.917
SK-LU-1 | 0.379 | 0.404 | 0.437 | 0.373 | 1.14 | 1.17 | 1.01 | 0.994 | 0.626 | 0.642 | 0.657 | 0.702 | 0.568 | 1.22 | 1.15 | 1.28 | 1.16 | 1.01
NCI-H23 | 0.597 | 0.543 | 0.623 | 0.573 | 0.662 | 0.832 | 0.704 | 0.766 | 0.311 | – | 0.327 | 0.298 | 0.331 | 0.687 | – | 0.695 | 0.684 | 0.668
HOP-62 | 0.471 | 0.581 | 0.559 | 0.447 | 0.432 | 0.353 | 0.349 | 0.278 | 0.225 | 0.207 | 0.21 | 0.195 | 0.198 | 0.997 | 1.16 | 0.912 | 0.971 | 0.909
HARA | 0.262 | 0.285 | 0.248 | 0.248 | 0.265 | 0.306 | 0.255 | 0.24 | 0.556 | 0.545 | 0.62 | 0.457 | 0.495 | 0.795 | 0.744 | 0.763 | 0.701 | 0.779
PC-3 [JPC-3] | 0.59 | 0.589 | 0.538 | 0.552 | 1.21 | 1.44 | 1.05 | 1.63 | 0.766 | 0.726 | – | 0.799 | 0.864 | 1.04 | 1 | 0.896 | 1 | 1.01
NCI-H1755 | 0.463 | 0.443 | 0.432 | 0.482 | 0.453 | 0.409 | 0.477 | 0.417 | 0.787 | 0.701 | 0.666 | 0.668 | 0.714 | 0.891 | 0.929 | 0.905 | 0.882 | 0.84
